Measured values: article PMC10907298 (Nature chemical biology, 2023)
Where “and” joins values, the source holds several entries; their conditions need not be identical. Equal entries are not always repeated.

Legend:
human STING V31M = human STING V31M (Homo sapiens, UniProt Q86WV6, V31M); test: ISRE reporter assay with STING co-transfection in HEK293T cells
MC38 tumors = test: MC38 flank tumor model in human STING knock-in mice; type: in vivo, mouse; settings: for Tumor Volume: 800ug intratumorally days 11, 14, 18, individual animals, listed as MGL844
[1] = intratumoral, days 11, 14 and 18

human STING V31M, sequence (Q86WV6 whole entry V31M): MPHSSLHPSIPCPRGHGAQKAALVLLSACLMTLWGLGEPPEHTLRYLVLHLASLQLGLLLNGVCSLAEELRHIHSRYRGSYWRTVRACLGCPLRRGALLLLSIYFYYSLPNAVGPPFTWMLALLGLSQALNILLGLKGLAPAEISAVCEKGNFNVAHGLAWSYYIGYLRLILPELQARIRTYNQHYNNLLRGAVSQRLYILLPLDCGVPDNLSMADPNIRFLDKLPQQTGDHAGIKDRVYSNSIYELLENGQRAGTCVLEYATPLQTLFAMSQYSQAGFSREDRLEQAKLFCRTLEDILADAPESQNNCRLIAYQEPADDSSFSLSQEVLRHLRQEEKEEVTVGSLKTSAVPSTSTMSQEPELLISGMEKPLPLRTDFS

COc1cc(C(=O)O)ccc1NCc1ccc(C2(C(C)(C)C)OCC(C)(C)CO2)cc1 [NVS-STG2]
ISRE reporter activity, mean (human STING V31M; Log[μM] 0.2): 31.8 | ISRE reporter activity, mean (human STING V31M; Log[μM] 0.5): 43.5 | ISRE reporter activity, mean (human STING V31M; Log[μM] 0.8): 50.7 | ISRE reporter activity, mean (human STING V31M; Log[μM] 1.1): 52.8 | ISRE reporter activity, mean (human STING V31M; Log[μM] 1.4): 50.8 | ISRE reporter activity, mean (human STING V31M; Log[μM] -0.1): 25.4 | ISRE reporter activity, mean (human STING V31M; Log[μM] -0.4): 17.4 | ISRE reporter activity, mean (human STING V31M; Log[μM] -0.7): 10.4 | ISRE reporter activity, mean (human STING V31M; Log[μM] -1): 5.7 | ISRE reporter activity, mean (human STING V31M; Log[μM] -1.3): 2.2 | Tumor Volume (MC38 tumors; day 10 post implant (before dosing)): 24.276 mm3 and 31.79 mm3 and 33.2145 mm3 and 35.594 mm3 and 59.168 mm3 and 64.512 mm3 and 74.431 mm3 and 81.466 mm3 and 88.36 mm3 | Tumor Volume (MC38 tumors; day 13 post implant): 23.275 mm3 and 45.6 mm3 and 74.925 mm3 and 56.074 mm3 and 80 mm3 and 91.936 mm3 and 95.648 mm3 and 133.28 mm3 and 139.707 mm3 | Tumor Volume (MC38 tumors; day 17 post implant): 23.04 mm3 and 36.414 mm3 and 64 mm3 and 34.2225 mm3 and 103.933 mm3 and 63.36 mm3 and 159.359 mm3 and 161.863 mm3 and 433.026 mm3 | Tumor Volume (MC38 tumors; day 20 post implant): 22.869 mm3 and 51.2 mm3 and 79.35 mm3 and 50.336 mm3 and 114.92 mm3 and 64.512 mm3 and 236.927 mm3 and 137.641 mm3 and 854.024 mm3 | Tumor Volume (MC38 tumors; day 25 post implant): 19.2 mm3 and 213.4 mm3 and 75.5 mm3 and 32 mm3 and 106.3 mm3 and 28.3 mm3 and 491.7 mm3 and 148.2 mm3 | Tumor Volume (MC38 tumors; day 28 post implant): 14.4 mm3 and 499.6 mm3 and 105 mm3 and 45.5 mm3 and 173.2 mm3 and 59.7 mm3 and 259.5 mm3 | Tumor Volume (MC38 tumors; day 31 post implant): 12.9 mm3 and 87.7 mm3 and 40 mm3 and 257.7 mm3 and 74.1 mm3 and 418.1 mm3 | Tumor Volume (MC38 tumors; day 33 post implant): 6.5 mm3 and 126 mm3 and 55.7 mm3 and 399.2 mm3 and 98.3 mm3 and 556.3 mm3 | mice with no tumor growth during the 33-day experimental period (MC38 tumors; [1]): 4 out of 9 | tumor growth in words (MC38 tumors; [1]): slowed tumor growth significantly
